Measurements: patent publication US12279618B2, “Use of dihydroporphin derived from chlorophyll as plant growth regulator” (Anqing Better Bioengineering Co., Ltd, priority 2019, dated 2025)

Assays:
Assay type in all cases: in vivo
corn seeds = assay: Corn seed germination experiment (seed soaking method, NYT 2061.1-2011)
Description: Test Method: Ministerial Standard NYT 2061.1-2011, Seed Soaking Method
Test samples: crude chlorin, and dihydroporphin monomers including chlorin fG, chlorin e6, pheophorbide, pyropheophorbide, chlorin e4, purpurin-7, purpurin-18, chlorin p6, 15-formyl rhodochlorin, 15-oxymethyl rhodochlorin, 15-oxymethyl rhodochlorin lactone A, 15-hydroxymethyl rhodochlorin, and 15-hydroxymethyl rhodochlorin lactone B, and pure water and iron chlorin e6 (China Pesticide Registration Certificate Number: PD20190031) were used as blank and positive control.
10 mg of each sample was weighed and put into a 10 ml volumetric flask, dissolved with DMSO, and diluted to volume after being dissolved completely. 1 ml of each diluted monomer solution was put into a 50-1000 ml volumetric flask, added with water, blended and diluted to volume so as to prepare a solution with a concentration of 2 ppm, 0.2 ppm, or 0.02 ppm.
The method was substantially the same as that in Example 2, except that the test samples were monomer chlorin e6 and control monomer chlorin e6 iron (III), both at a concentration of 0.02 ppm and the test seeds were corn, soybean, rice and wheat seeds. The preparation method of the control monomer was conducted by referring to CN102273467B.

soybean seeds [1] = assay: Soybean seed germination experiment (seed soaking method)
Procedure: (§1) Test Method: Ministerial Standard NYT 2061.1-2011, Seed Soaking Method 10 mg of each sample was weighed and put into a 10 ml volumetric flask, dissolved with DMSO, and diluted to volume after being dissolved completely. 1 ml of each diluted monomer solution was put into a 50-1000 ml volumetric flask, added with water, blended and diluted to volume so as to prepare a solution with a concentration of 2 ppm, 0.2 ppm, or 0.02 ppm. The method was substantially the same as that in Example 1 except that soybean seeds were used as the crop seeds, and the samples were crude chlorin, pyropheophorbide, chlorin f, chlorin e6, chlorin e4, purpurin-18, 15-oxymethyl rhodochlorin lactone, and 15-hydroxymethyl rhodochlorin lactone. The method was substantially the same as that in Example 2, except that the test samples were monomer chlorin e6 and control monomer chlorin e6 iron (III), both at a concentration of 0.02 ppm and the test seeds were corn, soybean, rice and wheat seeds. The preparation method of the control monomer was conducted by referring to CN102273467B.

wheat seeds = assay: Wheat seed germination experiment (seed soaking method)
Procedure: as §1, with “Example 2” for “Example 1”, “that wheat” for “that soybean”, “crop seeds.” for “crop seeds, and the samples were crude chlorin, pyropheophorbide, chlorin f, chlorin e6, chlorin e4, purpurin-18, 15-oxymethyl rhodochlorin lactone, and 15-hydroxymethyl rhodochlorin lactone.”

rice seeds = assay: Rice seed germination experiment (seed soaking method)
Procedure: as §1, with “Example 2” for “Example 1”, “that rice” for “that soybean”, “crop seeds.” for “crop seeds, and the samples were crude chlorin, pyropheophorbide, chlorin f, chlorin e6, chlorin e4, purpurin-18, 15-oxymethyl rhodochlorin lactone, and 15-hydroxymethyl rhodochlorin lactone.”

soybean seeds [2] = assay: Soybean seed germination experiment (seed soaking method); conditions: 0.2 ppm sample solution
[3] = 0.02 ppm sample solution, seed soaking
[4] = 0.2 ppm sample solution, seed soaking
[5] = 2 ppm sample solution, seed soaking
[6] = soybean seeds, 0.02 ppm sample solution
[7] = soybean seeds, 0.2 ppm sample solution
[8] = soybean seeds, 2 ppm sample solution
[9] = comparison of the monomers, 0.02 ppm
[10] = comparison of the monomers, 0.02 ppm, listed as chlorin e6
[11] = comparison of the monomers, soy bean seeds, 0.02 ppm

Molecule	Germination rate % (corn seeds; [3]) [%]	Germination rate % (corn seeds; [4]) [%]	Germination rate % (corn seeds; [5]) [%]	Germination rate % (soybean seeds [1]; [6]) [%]	Germination rate % (soybean seeds [1]; [7]) [%]	Germination rate % (soybean seeds [1]; [8]) [%]	Germination rate % (wheat seeds; 0.02 ppm sample solution) [%]	Germination rate % (wheat seeds; 0.2 ppm sample solution) [%]	Germination rate % (wheat seeds; 2 ppm sample solution) [%]	Germination rate % (rice seeds; 0.02 ppm sample solution) [%]	Germination rate % (rice seeds; 0.2 ppm sample solution) [%]	Germination rate % (rice seeds; 2 ppm sample solution) [%]	other results
C=Cc1c(C)c2cc3nc(c4c5[nH]c(cc6nc(cc1[nH]2)C(C)=C6CC)c(C)c5C(=O)OC4=O)[C@@H](CCC(=O)O)[C@@H]3C [Purpurin-18, purpurin-18]	55	58	53	66	65	67	97	97	95	77	78	76	–
C=Cc1c(C)c2cc3nc(c(CO)c4[nH]c(cc5nc(cc1[nH]2)C(C)=C5CC)c(C)c4C(=O)O)C(CCC(=O)O)C3C (centres unmarked) [15-hydroxymethyl rhodochlorin]	58	59	55	–	–	–	–	–	–	–	–	–	–
iron chlorin e6 [reference compound]	53	57	64	60	66	56	90	88	86	78	76	74	Germination rate % (rice seeds; 0.02 ppm sample solution, listed as iron chlorin e6): best germination effect; Germination rate % (rice seeds; 2 ppm sample solution, listed as iron chlorin e6): best germination effect; Germination rate % (soybean seeds [2]): most ideal germination effect
C=Cc1c(C)c2cc3nc(c4c5[nH]c(cc6nc(cc1[nH]2)C(C)=C6CC)c(C)c5C(=O)OC4)C(CCC(=O)O)C3C (centres unmarked) [15-hydroxymethyl rhodochlorin lactone]	60	54	48	–	60	–	86	96	92	72	74	68	–
C=Cc1c(C)c2cc3nc(c(C)c4[nH]c(cc5nc(cc1[nH]2)C(C)=C5CC)c(C)c4C(=O)O)[C@@H](CCC(=O)O)[C@@H]3C [Chlorin e4, chlorin e4]	57	55	48	67	66	65	93	98	97	71	76	77	–
C=Cc1c(C)c2cc3nc(c(C(=O)O)c4[nH]c(cc5nc(cc1[nH]2)C(C)=C5CC)c(C)c4C(=O)O)[C@@H](CCC(=O)O)[C@@H]3C [Chlorin p6, chlorin p6]	49	55	52	–	–	–	–	–	–	–	–	–	–
chlorin f	55	66	58	66	54	62	94	88	92	76	72	66	Germination rate % (soybean seeds [1]; soybean seeds, 2 ppm sample solution, listed as chlorin f): better germination effects than the positive control; Germination rate % (wheat seeds; 0.02 ppm sample solution, listed as chlorin f): best germination effect
15-oxymethyl rhodochlorin	56	52	52	–	–	–	–	–	–	–	–	–	–
C=Cc1c(C)c2cc3nc(c(CC(=O)O)c4[nH]c(cc5nc(cc1[nH]2)C(C)=C5CC)c(C)c4C(=O)O)[C@@H](CCC(=O)O)[C@@H]3C [Chlorin e6, chlorin e6]	58	42	46	60	59	60	94	96	90	70	74	68	Germination rate % (corn seeds; [9]): 58%; Germination rate % (corn seeds; [10]): all better than those for the iron chelate monomer chlorin e6 iron (III); Germination rate % (soybean seeds [1]; [11]): 66%; Germination rate % (soybean seeds [1]; comparison of the monomers, soy bean seeds, 0.02 ppm, listed as chlorin e6): all better than those for the iron chelate monomer chlorin e6 iron (III); Germination rate % (wheat seeds; 0.02 ppm sample solution, listed as chlorin e6): best germination effect; Germination rate % (wheat seeds; [9]): 94%; Germination rate % (wheat seeds; [10]): all better than those for the iron chelate monomer chlorin e6 iron (III); Germination rate % (rice seeds; [9]): 76%; Germination rate % (rice seeds; [10]): all better than those for the iron chelate monomer chlorin e6 iron (III)
C=Cc1c(C)c2cc3nc(c(C=O)c4[nH]c(cc5nc(cc1[nH]2)C(C)=C5CC)c(C)c4C(=O)O)[C@@H](CCC(=O)O)[C@@H]3C [15-formyl rhodochlorin]	52	51	54	–	–	–	–	–	–	–	–	–	–
chlorin e6 iron (III) [reference compound]	–	–	–	–	–	–	–	–	–	–	–	–	Germination rate % (corn seeds; [9]): 46%; Germination rate % (soybean seeds [1]; [11]): 60%; Germination rate % (wheat seeds; [9]): 92%; Germination rate % (rice seeds; [9]): 58%
C=Cc1c(C)c2cc3nc(c4c5[nH]c(cc6nc(cc1[nH]2)C(C)=C6CC)c(C)c5C(=O)[C@@H]4C(=O)OC)[C@@H](CCC(=O)O)[C@@H]3C [Pheophorbide, pheophorbide]	57	55	56	–	–	–	–	–	–	–	–	–	–
15-oxymethyl rhodochlorin lactone	54	66	58	58	58	60	–	94	82	72	–	70	–
purpurin-7	56	57	53	–	–	–	–	–	–	–	–	–	–
C=Cc1c(C)c2cc3nc(c4c5[nH]c(cc6nc(cc1[nH]2)C(C)=C6CC)c(C)c5C(=O)C4)[C@@H](CCC(=O)O)[C@@H]3C [Pyropheophorbide, pyropheophorbide]	58	56	55	61	67	65	94	92	93	73	74	72	–
